Experimental data from PubChem BioAssay (NCI).
Where “and” joins values, the source holds several entries; their conditions need not be identical. Equal entries are not always repeated.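 Following 48 hours of exposure in 96-well plates, responses at five concentrations were used to interpolate endpoints linearly. GI50 = concentration required for 50% inhibition of growth. At the TGI there is no net growth.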

Experiments:
Assay in all cases: NCI tumour cell line growth inhibition, 48 h
SK-OV-3 ovarian = system: SK-OV-3 ovarian
HOP-62 NSCLC = system: HOP-62 NSCLC
RPMI-8226 leukemia = system: RPMI-8226 leukemia
COLO 205 colon = system: COLO 205 colon
IGROV1 ovarian = system: IGROV1 ovarian
786-0 renal = system: 786-0 renal
SNB-75 CNS = system: SNB-75 CNS
OVCAR-3 ovarian = system: OVCAR-3 ovarian
A549 NSCLC = system: A549 NSCLC
SK-MEL-5 melanoma = system: SK-MEL-5 melanoma

| SMILES | TGI (SK-OV-3 ovarian) [µM] | TGI (HOP-62 NSCLC) | TGI (RPMI-8226 leukemia) | TGI (COLO 205 colon) | TGI (IGROV1 ovarian) | TGI (786-0 renal) | TGI (SNB-75 CNS) | TGI (OVCAR-3 ovarian) | TGI (A549 NSCLC) | TGI (SK-MEL-5 melanoma) | GI50 (SK-OV-3 ovarian) [µM] | GI50 (HOP-62 NSCLC) [nM] | GI50 (RPMI-8226 leukemia) [nM] | GI50 (COLO 205 colon) [nM] | GI50 (IGROV1 ovarian) [µM] | GI50 (786-0 renal) [µM] | GI50 (SNB-75 CNS) [nM] | GI50 (OVCAR-3 ovarian) [nM] | GI50 (A549 NSCLC) [nM] | GI50 (SK-MEL-5 melanoma) [nM] |
| --- | --- | --- | --- | --- | --- | --- | --- | --- | --- | --- | --- | --- | --- | --- | --- | --- | --- | --- | --- | --- |
| NS(=O)(=O)c1ccc(NC(=O)c2cccc3c(Nc4ccc(S(N)(=O)=O)cc4)c4ccccc4nc23)cc1 | > 100 | > 100 µM | 39.1 µM | > 100 µM | > 100 µM | > 100 µM | > 100 µM | 35.2 µM | > 100 µM | > 100 µM |  |  |  |  |  |  |  |  |  |  |
| Cc1ccc(-c2c3c(N)c4c(nc3nc3c2c(C)nn3-c2ccccc2)CCC4)cc1 | 15 | 8.23 µM | 5.53 µM | 3.6 µM | 16.2 µM | 3.65 µM | 6.66 µM | 3.86 µM | 7.49 µM | 3.31 µM | 7.01 | 2700 | 2230 | 1690 | 4.02 | 1.87 | 2070 | 1960 | 2500 | 1730 |
| CCOC(=O)c1cn(CC)c2cc3c(cc2c1=O)SCS3 | > 100 | > 100 µM | > 100 µM | > 100 µM | > 100 µM | > 100 µM | > 100 µM | > 100 µM | > 100 µM | > 100 µM |  |  |  |  |  |  |  |  |  |  |
| Cc1cc(Cl)ccc1Nc1nc(C(F)(F)F)ccc1C(=O)Nc1cccc(C(F)(F)F)c1 | 10.8 | 11.9 µM | 12 µM | 6.13 µM | 22.7 µM | 12.9 µM | 11.5 µM | 19.1 µM | 18 µM | 9.34 µM | 2.44 | 2600 | 2730 | 2520 | 3.88 | 3.61 | 3410 | 3520 | 3400 | 2790 |
| CN(C)C(=S)SCC(N)=O | > 100 | > 100 µM | > 100 µM | > 100 µM | > 100 µM | > 100 µM | > 100 µM | > 100 µM | > 100 µM | > 100 µM |  |  |  |  |  |  |  |  |  |  |
| O=C1C=C(OCCCl)C(=O)c2c(O)ccc(O)c21 |  | 1.52 µM and 3.39 µM | 6.78 µM and 4.08 µM | 0.338 µM and 1.92 µM | 3.43 µM and 3.66 µM | 3.22 µM and 6.75 µM | 0.97 µM and 3.74 µM | 2.33 µM and 1.08 µM | 0.686 µM and 3.41 µM | 0.321 µM and 0.299 µM | 25.2 | 1970 | 1380 | 592 |  | 2.52 | 2100 | 286 | 1630 |  |
| Nc1cc(-c2ccccc2)n(C(=O)Nc2ccc(Oc3ccccc3)cc2)n1 | > 100 | > 100 µM | > 100 µM | > 100 µM | > 100 µM | > 100 µM | 3.04 µM | > 100 µM | > 100 µM | > 100 µM | 68.9 | 30200 | 19700 | > 100000 | 36 | 29.5 |  | 31300 | 27800 | > 100000 |
